pIC50: −log10 of the molar value. “And” between values parts separate entries of the source, which are not always exact repeats. Equal values may be shown once.
Tested on: P. falciparum 3D7 growth, pLDH absorbance
Experiment: blood-stage malaria parasite growth potency – strain 3D7, dose response (AID 2305)

SMILES	pIC50
COCCNCc1cccc(-c2cccc(CN(C(=O)Nc3ccccc3)C3CCN(Cc4ccccc4)CC3)c2)c1	6.89
O=C(N1CCN(c2ccnc3cc4c(cc23)N(Cc2ccccc2)CC4)CC1)C(F)(F)F	6.59
CCNc1cc(C(=O)N[C@@H](Cc2ccccc2)[C@H](O)CNCCc2ccccc2)cc(N2CCCCS2(=O)=O)c1	6.03
Cc1[nH]c(C)c(C(F)(F)F)c(=O)c1-c1ccc(Oc2ccc(OC(F)(F)F)cc2)cc1	6.77
NC(N)=NN=Cc1c[nH]c2ccc(-c3ccccc3)cc12	6.28
O=C(Cc1ccccc1)NC(c1ccco1)c1cc(Cl)c2cccnc2c1O (stereo not given)	6.16
COc1ccc2nccc([C@@H](O)CN3CCC(NCCOc4ccc(F)cc4[N+](=O)[O-])CC3)c2c1	6.92
CCCCc1ccc(Cc2cnc3nc(N)nc(N)c3c2C)cc1	6.64
O=C(/C=C/c1cccc2c1OCO2)Nc1ccnc2ccncc12	6.05
CC(=O)Nc1cccc(C(=O)Nc2ccc(-c3cccc(-c4nc5ccc(F)cc5[nH]4)c3)cc2)c1	6.20
CCc1sc(N2CCC(C)CC2)nc1C(=O)Nc1ccc(F)cc1C(F)(F)F	5.96
CC(=O)N1N=C(c2ccc(F)cc2)Sc2c1nc(C1CCCCC1)n2C(C)=O	6.05
CC(C)(NCc1ccc(OC(F)(F)F)cc1)c1nc(-c2ccc(Cl)c(O)c2)c(-c2ccncc2)[nH]1	6.03
Cn1cncc1C(=O)NC1CCN(c2ccnc(Nc3ccc(F)cc3)n2)C1 (stereo not given)	6.08
Cc1ccc(C(=O)Nc2ccc(C)c(OC3CCN(CCC(C)C)C3)c2)cc1 (stereo not given)	6.10
COc1ccc(-c2nc(-c3ccc([N+](=O)[O-])cc3)no2)cc1OC	6.39
C[C@@]12C[C@@H](Nc3nc(NCCc4ccc(O)cc4)nc(N4CCNCC4)n3)C[C@@H](C1)c1cccc(Cl)c1O2	5.88
O=C(/C=C/c1cccc(F)c1)NC1CCC(CN2CCC(c3c[nH]c4ccccc34)CC2)CC1 (stereo not given)	6.06 and 6.15
Cc1noc(C)c1-c1cccc(CNCc2ccc(-c3ccc(-c4nc5ccccc5[nH]4)s3)cc2)c1	6.25
CCOc1ccc(-c2noc(-c3c[nH]c4ccccc4c3=O)n2)cc1	6.68
Clc1ccc(C2CCN(CCCOc3ccc4c(c3)CCNCC4)CC2)cc1	6.12
CC1CCN(CCNC(=O)c2ccc3c(=O)n(Cc4ccc(Cl)cc4)c(=S)[nH]c3c2)CC1	6.15
COc1ccc2nc(-c3ccccc3)cc(NN=Cc3ccc([N+](=O)[O-])o3)c2c1	6.70
N#Cc1cccc(NC(=O)C2=C(CCc3ccc4c(c3)OCO4)NC(=O)NC2c2cccc(C#N)c2)c1 (stereo not given)	6.08
Cn1nc(-c2ccc(S(=O)(=O)N3CCC(CN4CCC(c5c[nH]c6ccccc56)CC4)CC3)s2)cc1C(F)(F)F	5.96

SMILES	pIC50
CC(C)CNCc1cccc(-c2ccccc2CNC2CCN(Cc3ccccc3)CC2)c1	6.24
COCCNCc1ccc(-c2ccc(CNc3ccc4ncccc4c3)cc2)cc1	5.98
COc1ccc(C(c2ccc(N(C)C)cc2)c2ccc(N(C)C)cc2)cc1	7.22
CCc1ccc(S(=O)(=O)Nc2cccc(CCN3CCC(N4CCCCC4)CC3)c2)cc1	6.05
COc1c(CNCCCCCCNCc2cc(Cl)c3ccccc3c2OC)cc(Cl)c2ccccc12	6.03
Cc1cc(C(=O)NCc2ccc(-c3c(C)noc3C)cc2)n(-c2ccc(Cl)cc2)n1	6.28
COc1ccc2nc(N3CCN(C(=O)OC(C)(C)C)CC3)nc(NCCCc3ccccc3)c2c1	6.16
CCn1cc(-c2cc(C(=O)Nc3ccc(OC)cc3C)c3ccccc3n2)c(C)n1	6.01
CCc1nc(N)nc(N)c1-c1ccc2c(c1)CCCC2	6.70
COc1cccc(-c2nn(C)c3sc(C(=O)Nc4cccnc4)cc23)c1	6.02
c1ccc(Oc2ccc(Nc3ccnc4cc(-c5ccc(CN6CCCCC6)o5)ccc34)cc2)nc1	6.48
Fc1ccc2nc(-c3ccc(-c4cccc(CN5CCC(CCN6CCCCC6)CC5)c4)cc3)[nH]c2c1	6.85
COc1ccc(NC(=O)/C=C/c2ccccc2Cl)cc1OCCN1CCC(NCc2ccccc2)CC1	6.46
CN(C)CCCN1C(=O)c2[nH]nc(-c3ccc(Cl)cc3O)c2C1c1ccc(Cl)cc1 (stereo not given)	6.12
CCOc1cc(N)c2nc3ccc([N+](=O)[O-])cc3cc2c1	6.82
CN1CCC(NCc2cccc(-c3nn(C)c4nc(NC5CCCC5)ncc34)c2)CC1	5.99
COc1cc(CCNc2nc(NCc3cccc4ccccc34)nc(N3CCC(N)CC3)n2)ccc1O	6.10
Cc1cc(F)ccc1Nc1nc(N(C)c2ccccc2)c2cccc(O)c2n1	6.02
FC(F)(F)c1ccc2nc(-c3ccc(-c4cccc(CN5CCN(c6ccncc6)CC5)c4)cc3)[nH]c2c1	6.92
COc1ccc2ccccc2c1C=NNc1cc(C)nc2c(C)cccc12	6.09
OCc1ccc(-c2cncc(Nc3ccc(F)c(Cl)c3)c2)cc1	7.05
Cc1nc(NC2=NCN(CCCN3CCOCC3)CN2)nc2c(C)cccc12	5.95
COc1ccc(O)c(C(=O)c2cc(C(=O)NC3CCCCC3)c(=O)n(C3CCCCC3)c2)c1	6.18
Oc1cc2c(cc1CN1CCN(Cc3ccccc3F)CC1)CCC2	6.12
Cc1[nH]c(C)c(-c2ccc(-c3ccc(OC(F)(F)F)cc3)nc2)c(=O)c1Cl	6.70
